In patent US8785380B2 (priority 2011, dated 2014):

How the values were obtained:
[1] = male, Wistar albino, rat, in vivo, po, 250 mg/kg
Description: Concentration was determined by HPLC/PDA detection.
[…] blood was collected after each time point, ca. 0, 0.5, 1, 3, 5, 10 and 24 hours respectively into heparinized tubes and centrifuged at 6000×g for 15 minutes. Plasma was decanted and stored at −80° C. until analysis. […] Briefly, 1 mL of plasma was extracted with 3×10 mL of ethyl acetate and is dried over anhydrous sodium sulphate and evaporated to dryness. The residue was then made up to 10 mL with methanol and 20 μL was injected to Shimadzu model LC-20 AT HPLC fitted with a PDA detector model M20A using a reverse phase C18 column (Phenomenex 250×4.6 mm, 5μ) and methanol mobile phase monitored at 420 nm.
Curcuminoid retention time was confirmed by repeated 10 analyses at 50 mg level on same column under identical conditions. […] Analysis was performed by incorporating a Waters Alliance LC fitted with Waters 3100 ESI mass detector.

[2] = In vitro release of curcumin at pH 6.8 and pH 1.2, 37 °C; format: physicochemical; conditions: for Cumulative percent of release of curcumin: 37 °C, after 24 hour
Description: Each data point is an average of 3 measurements (n=3) performed under identical conditions. […] Studies were performed in triplicate and mean cumulative percentage of released curcumin was calculated and plotted against time. […] This could be attributed to the very slow initial swelling of polysaccharide chains in water and its further dissolution to allow the leaching of entrapped curcumin into the solution in the dissolution flask.

[3] = human, in vivo, po
Description: The enhancement of bioavailability was also tested on human volunteers of age group between 25 to 50, who were healthy and not involved in any medication or health supplementation. The volunteers were not allowed to take turmeric-containing food for two days prior to the test.
6 mL blood of each volunteer was withdrawn at 0, 0.5, 1, 3, 5, 8 and 24 hours respectively and plasma samples were deep-frozen at −80° C. till analysis.

Tmax (time taken to reach maximum concentration in plasma) [1]: 3 h | curcumin dissolved ([2]; after 24 hours): around 0.4% | Cumulative percent of release of curcumin ([2]; pH 1.2 0.1M HCl): 0.06% | Cumulative percent of release of curcumin ([2]; pH 6.8 phosphate buffer): 0.08% | time of maximum absorption of curcuminoids in the plasma [3]: around 30 min
Structure (SMILES): COc1cc(/C=C/C(=O)CC(=O)/C=C/c2ccc(O)c(OC)c2)ccc1O [unformulated curcumin, curcumin]
